Measured values: patent US20260373165A1, “PHARMACEUTICAL COMBINATIONS AND COMPOSITIONS, AND METHODS OF USE THEREOF” (SHENZHEN HIGHTIDE BIOPHARMACEUTICAL LTD., priority 2022, published 2026)
“Also recorded” adds a separate entry of the source.

Legend:
Assay type in all cases: in vivo, mouse (C57BL/6J male, 60% HFD DIO)
[1] = Example 1: body weight and body weight change rate, combined administration of HTD1801 and empagliflozin in DIO obesity model; conditions: semaglutide 10 nmol/kg s.c. Q3D
Excerpt: (§1) After 5-week-old C57BL/6J male mice were acclimatized for 1 week, the weight of each mouse was weighed, and the mice were randomly divided into a control group and a model group by taking the weight as a main index, where 12 mice in the control group were fed with common feed (CD), and the mice in the remaining model group were fed with 60% high-fat feed (60% HFD) for 10-12 weeks to construct a DIO obesity model, with the average body weight being not less than 40 g. The mice fed with 60% HFD were grabbed and acclimatized with a solvent for 3 days, where the acclimatization with a solvent was performed by oral gavage of 0.5% CMC-Na, twice daily.
(§2) The food intake, the body weight, the body fat ratio, and the insulin level of the mice were respectively measured, followed by fasting blood glucose level, and the mice were randomly grouped according to Table 3 by taking the body weight as an index, and the remaining ungrouped mice were euthanized. After grouping, each group of mice was administered according to Table 3, the day of administration was defined as DO, and the administration volume of each drug was determined based on the results obtained by the calculation of 5 μL/g× mouse body weight (g).
(§3) For the combined administration group, the total administration volume was the sum of the administration volumes of two single drugs, and the administration sequence and the administration time were kept consistent at each administration. The mice were continuously fed with high-fat feed during the administration period until the administration was finished. During administration, 2 food intakes were measured per week (difference in feed weights at an interval of 24 h was measured); each group of mice was weighed once daily; postprandial blood glucose levels were measured weekly; blood was collected from the tail tip on day 6 and day 20, respectively, so as to measure fasting blood glucose levels once (blood was collected after fasting from 8:00 am to […]); on day 25 of administration, the body fat ratio and the lean mass of each group of mice were measured by MRI (the measurement period was kept consistent with that before grouping); after 4 weeks of administration intervention (day 28), each group of mice was fasted for 6 h and subjected to OGTT (0 min, 15 min, 30 min, 60 min, 90 min, 120 min) to detect their blood glucose levels, and meanwhile subjected to blood sampling via submaxillary vein (0 min, 15 min, 30 min, about 30 μL of blood sampled each time), and then the blood plasma was separated for detecting the insulin level by ELISA, where the separated blood plasma was more than 10 μL; the next day (D29) at the end of administration was set as the test endpoint, and the mice were fasted for 6 h in the morning and subjected to fasting blood glucose level measurement; subsequently, the mice were euthanized with CO2, blood was collected from the heart of each mouse for analysis, and each group of mice was dissected; the liver and subcutaneous, epididymal and mesenteric fat was collected, photographed and weighed, respectively.

[2] = Example 1: lean mass by MRI after 25 days
Excerpt: as §1, §2, §3
After 25 days of administration, the body weight, the Lean weight and the lean ratio of each animal in groups G1 to G5 were measured and averaged for each group, and the results are shown in Table 7 below, FIG. 9 and FIG. 10.

[3] = Example 1: fasting blood glucose level; conditions: semaglutide 10 nmol/kg s.c. Q3D
Excerpt: as §1, §2
For the combined administration group, the total administration volume was the sum of the administration volumes of two single drugs, and the administration sequence and the administration time were kept consistent at each administration. The mice were continuously fed with high-fat feed during the administration period until the administration was finished. […]
After 20 days of administration, fasting blood glucose level results were measured for each group of animals and are shown in Table 8 below and FIG. 11.

[4] = Example 1: oral glucose tolerance test (OGTT), blood glucose; conditions: for OGTT blood glucose level: HTD1801 200 mpk, empagliflozin 10 mpk (reduced after week 2), semaglutide 10 nmol/kg s.c. Q3D
Excerpt: as §1, §2, §3

[5] = Example 1: food intake within 24 h; conditions: during administration period, vs model control group
Excerpt: as §1
as §2, with “(g). […]” for “(g).”

[6] = day 0 (baseline), HTD1801 300 mpk, empagliflozin 15 mpk gavage QD
[7] = day 1, HTD1801 300 mpk, empagliflozin 15 mpk gavage QD
[8] = day 2, HTD1801 300 mpk, empagliflozin 15 mpk gavage QD
[9] = day 3, HTD1801 300 mpk, empagliflozin 15 mpk gavage QD
[10] = day 4, HTD1801 300 mpk, empagliflozin 15 mpk gavage QD
[11] = day 5, HTD1801 300 mpk, empagliflozin 15 mpk gavage QD
[12] = day 6, HTD1801 300 mpk, empagliflozin 15 mpk gavage QD
[13] = day 7, HTD1801 300 mpk, empagliflozin 15 mpk gavage QD
[14] = day 8, HTD1801 300 mpk, empagliflozin 15 mpk gavage QD
[15] = day 9, HTD1801 300 mpk, empagliflozin 15 mpk gavage QD
[16] = day 10, HTD1801 300 mpk, empagliflozin 15 mpk gavage QD
[17] = day 11, HTD1801 300 mpk, empagliflozin 15 mpk gavage QD
[18] = day 12, HTD1801 300 mpk, empagliflozin 15 mpk gavage QD
[19] = day 13, HTD1801 300 mpk, empagliflozin 15 mpk gavage QD
[20] = day 14, HTD1801 300 mpk, empagliflozin 15 mpk gavage QD
[21] = day 15, HTD1801 200 mpk, empagliflozin 10 mpk (reduced after week 2) gavage QD
[22] = day 16, HTD1801 200 mpk, empagliflozin 10 mpk (reduced after week 2) gavage QD
[23] = day 17, HTD1801 200 mpk, empagliflozin 10 mpk (reduced after week 2) gavage QD
[24] = day 18, HTD1801 200 mpk, empagliflozin 10 mpk (reduced after week 2) gavage QD
[25] = day 19, HTD1801 200 mpk, empagliflozin 10 mpk (reduced after week 2) gavage QD
[26] = day 20, HTD1801 200 mpk, empagliflozin 10 mpk (reduced after week 2) gavage QD
[27] = day 21, HTD1801 200 mpk, empagliflozin 10 mpk (reduced after week 2) gavage QD
[28] = day 22, HTD1801 200 mpk, empagliflozin 10 mpk (reduced after week 2) gavage QD
[29] = day 23, HTD1801 200 mpk, empagliflozin 10 mpk (reduced after week 2) gavage QD
[30] = day 24, HTD1801 200 mpk, empagliflozin 10 mpk (reduced after week 2) gavage QD
[31] = day 25, HTD1801 200 mpk, empagliflozin 10 mpk (reduced after week 2) gavage QD
[32] = day 26, HTD1801 200 mpk, empagliflozin 10 mpk (reduced after week 2) gavage QD
[33] = day 27, HTD1801 200 mpk, empagliflozin 10 mpk (reduced after week 2) gavage QD
[34] = day 28, HTD1801 200 mpk, empagliflozin 10 mpk (reduced after week 2) gavage QD
[35] = mean, after 25 days of administration, HTD1801 200 mpk, empagliflozin 10 mpk in last 2 weeks (300/15 mpk before)

OC[C@H]1O[C@@H](c2ccc(Cl)c(Cc3ccc(O[C@H]4CCOC4)cc3)c2)[C@H](O)[C@@H](O)[C@@H]1O [Empagliflozin, empagliflozin]
body weight change (in words) ([1]; after 14 days, reduced dose: HTD1801 200 mpk, empagliflozin 10 mpk): slowly increased
Body weight (mean) [1, 6]: 42.9 g
Body weight change rate [1, 6]: 0.0%
Body weight (mean) [1, 7]: 42.8 g
Body weight change rate [1, 7]: −0.2%
Body weight (mean) [1, 8]: 42.9 g
Body weight change rate [1, 8]: 0.1%
Body weight (mean) [1, 9]: 42.8 g
Body weight change rate [1, 9]: −0.1%
Body weight (mean) [1, 10]: 42.9 g
Body weight change rate [1, 10]: 0.0%
Body weight (mean) [1, 11]: 43.0 g
Body weight change rate [1, 11]: 0.4%
Body weight (mean) [1, 12]: 42.9 g
Body weight change rate [1, 12]: 0.1%
Body weight (mean) [1, 13]: 42.6 g
Body weight change rate [1, 13]: −0.5%
Body weight (mean) [1, 14]: 42.7 g
Body weight change rate [1, 14]: −0.4%
Body weight (mean) [1, 15]: 43.1 g
Body weight change rate [1, 15]: 0.5%
Body weight (mean) [1, 16]: 43.2 g
Body weight change rate [1, 16]: 0.8%
Body weight (mean) [1, 17]: 43.3 g
Body weight change rate [1, 17]: 1.1%
Body weight (mean) [1, 18]: 43.7 g
Body weight change rate [1, 18]: 1.9%
Body weight (mean) [1, 19]: 43.6 g
Body weight change rate [1, 19]: 1.8%
Body weight (mean) [1, 20]: 43.7 g
Body weight change rate [1, 20]: 2.0%
Body weight (mean) [1, 21]: 43.5 g
Body weight change rate [1, 21]: 1.5%
Body weight (mean) [1, 22]: 43.8 g
Body weight change rate [1, 22]: 2.3%
Body weight (mean) [1, 23]: 44.1 g
Body weight change rate [1, 23]: 2.9%
Body weight (mean) [1, 24]: 44.5 g
Body weight change rate [1, 24]: 3.9%
Body weight (mean) [1, 25]: 44.8 g
Body weight change rate [1, 25]: 4.4%
Body weight (mean) [1, 26]: 45.1 g
Body weight change rate [1, 26]: 5.2%
Body weight (mean) [1, 27]: 45.5 g
Body weight change rate [1, 27]: 6.2%
Body weight (mean) [1, 28]: 46.0 g
Body weight change rate [1, 28]: 7.3%
Body weight (mean) [1, 29]: 46.4 g
Body weight change rate [1, 29]: 8.3%
Body weight (mean) [1, 30]: 46.5 g
Body weight change rate [1, 30]: 8.5%
Body weight (mean) [1, 31]: 46.5 g
Body weight change rate [1, 31]: 8.4%
Body weight (mean) [1, 32]: 46.3 g
Body weight change rate [1, 32]: 8.1%
Body weight (mean) [1, 33]: 46.7 g
Body weight change rate [1, 33]: 8.9%
Body weight (mean) [1, 34]: 46.5 g
Body weight change rate [1, 34]: 8.4%
body weight change / weight loss effect (in words) ([1]; within 14 days, HTD1801 300 mpk, empagliflozin 15 mpk gavage QD): basically unchanged in week 1 and gradually increased; also recorded: could not achieve the weight loss effect
lean mass (in words) ([2]; after 25 days, relative to model control group G2): decreased
Body weight ([2]; mean, after 25 days of administration (Table 7), HTD1801 200 mpk, empagliflozin 10 mpk in last 2 weeks (300/15 mpk before)): 47.53 g
Lean (lean mass) [2, 35]: 5.17 g
Lean ratio [2, 35]: 10.92%
Mean fasting blood glucose level [3, 12]: 7.8 mmol/L
Mean fasting blood glucose level ([3]; day 20, HTD1801 200 mpk, empagliflozin 10 mpk (reduced after week 2)): 7.9 mmol/L
OGTT blood glucose level ([4]; day 28, 0 min): 10.97 mmol/L
OGTT blood glucose level ([4]; day 28, 15 min): 19.60 mmol/L
OGTT blood glucose level ([4]; day 28, 30 min): 18.90 mmol/L
OGTT blood glucose level ([4]; day 28, 60 min): 18.18 mmol/L
OGTT blood glucose level ([4]; day 28, 90 min): 14.54 mmol/L
OGTT blood glucose level ([4]; day 28, 120 min (head printed "12 0min")): 15.48 mmol/L
total blood glucose level in OGTT (in words) ([4]; day 28, relative to model control group G2): comparable
food intake within 24 h (in words) [5]: comparable to that of the model control group
